Data taken from article PMC6268628, “Steroidal and Phenolic Glycosides from the Bulbs of Lilium pumilum DC and Their Potential Na^+/K^+ ATPase Inhibitory Activity” (Molecules, 2012).
pIC50: −log10 of the molar value. Read-outs that look alike come from different tables or passages of the source.

Target: T1, Ouabain sensitive dog kidney Na^+/K^+ ATPase (Canis lupus familiaris, UniProt P50997)
T1 construct: Ouabain sensitive dog kidney Na^+/K^+ ATPase was obtained from Sigma (Shanghai, China); purchased Sigma (Shanghai, China); host or cells: dog kidney (tissue-derived enzyme preparation)
Assay: Assay of Na+/K+ ATPase activity (released inorganic phosphate, absorbance at 660 nm)
Format: biochemical
Description: Specific rotation measurements were recorded on a Perkin-Elmer 242 MC polarimeter. UV spectra were recorded on a Hewlett-Packard HP-845 UV-VIS spectrophotometer. IR spectra were recorded on a Nicolet 470 spectrometer and MS on a Varian MAT-212 mass spectrometer and a Shimadzu GC-MS model QP2010 Plus spectrophotometer, respectively. NMR spectra were recorded on a Bruker AM-400 spectrameter (400 MHz for ^1H-NMR) or a Bruker DRX-500 (500 MHz for ^1H-NMR) spectrameter using standard Bruker pulse programs. Chemical shifts are given as δ values with reference to tetramethylsilane (TMS) as internal standard. Column chromatography separations were carried out on silica gel (200–300 mesh, Qingdao Haiyang Chemical Co. Ltd, Qingdao, China), ODS (50 mesh, AA12S50, YMC), Diaion HP-20 (Pharmacia, Peapack, NJ, USA) and Sephadex LH-20 (Pharmacia, Peapack, NJ, USA). Ouabain sensitive dog kidney Na^+/K^+ ATPase was obtained from Sigma (Shanghai, China). All other chemicals used were of biochemical reagent grade.
The Na^+/K^+ ATPase activity was assayed according to the reported method with some modification. […] The released inorganic phosphate was determined by the following method. […] After 25 min, the absorbance at 660 nm was recorded.

Compound	pIC50 (0.02 units enzyme, 3 mM ATP, pH 7.3, 37 °C, 20 min, 5% DMSO, read-out: IC50, inhibitory activity on Na^+/K^+ ATPase)	pIC50
CC1CCC2(OC1)OC1CC3C4CC(=O)C5CC(OC6OC(CO)C(O)C(O)C6OC6OC(C)C(O)C(O)C6O)CCC5(C)C4CCC3(C)C1C2C [Compound 3, (25R)-3β-hydroxyl-5α-spirostan-6-one 3-O-α-L-rhamnopyranosyl-(1→2)-β-D-glucopyranoside]	4.14	
C[C@@H]1O[C@@H](O[C@H]2C[C@@H](O)[C@]3(CO)[C@H]4[C@H](O)C[C@]5(C)[C@@H](C6=CC(=O)OC6)CC[C@]5(O)[C@@H]4CC[C@]3(O)C2)[C@H](O)[C@H](O)[C@H]1O [Ouabain, reference compound]		6.00
